From BindingDB's records for doi:10.1021/jm300844m (The University of Newcastle, 2013)

Assay: Inhibition of dyn2 in human U2OS cells assessed as clathrin-mediated endocytosis of Tfn after 30 mins

| IC50 | Structure (SMILES) |
| --- | --- |
| 3.5 µM | CCCCCCCCNCc1cn(CCCN(C)C)c2ccccc12 |
| 5 µM | CCCCCCCCNC(=O)/C(C#N)=C/c1cn(CCCN(C)C)c2ccccc12 [2-Cyano-N-octyl-3-(1-(3-dimethylaminopropyl)-1H-indol-3-yl)-acrylamide] |
